Measured values from patent US8987276B2, “Substituted triazolyl piperazine and triazolyl piperidine derivatives as gamma secretase modulators” (Janssen Pharmaceuticals, Inc., priority 2011, dated 2015).
Structures can show the parent of a compound that is named as a salt.

Columns and labels:
Aβ42 [1] = assay: Screening for γ-secretase-modulating activity: Aβ42 in supernatant of SKNBE2 cells carrying APP 695-wild type (Alphalisa); type: cell-based; details: Homo sapiens, overnight incubation, cell supernatant
Method: (§1) Screening was carried out using SKNBE2 cells carrying the APP 695-wild type, grown in Dulbecco's Modified Eagle's Medium/Nutrient mixture F-12 (DMEM/NUT-mix F-12) (HAM) provided by Invitrogen (cat no. 10371-029) containing 5% Serum/Fe supplemented with 1% non-essential amino acids, 1-glutamine 2 mM, Hepes 15 mM, penicillin 50 U/ml (units/ml) en streptomycin 50 µg/ml. Cells were grown to near confluency.
(§2) The screening was performed using a modification of the assay as described in Citron et al (1997) Nature Medicine 3: 67. Briefly, cells were plated in a 384-well plate at 10^4 cells/well in Ultraculture (Lonza, BE12-725F) supplemented with 1% glutamine (Invitrogen, 25030-024), 1% non-essential amino acid (NEAA), penicillin 50 U/ml en streptomycin […] in the presence of test compound at different test concentrations. The cell/compound mixture was incubated overnight at 37° C., 5% CO2. The next day the media were assayed by two sandwich immuno-assays, for Aβ42 and Aβtotal.
(§3) Aβtotal and Aβ42 concentrations were quantified in the cell supernatant using the Aphalisa technology (Perkin Elmer). Alphalisa is a sandwich assay using biotinylated antibody attached to streptavidin coated donorbeads and antibody conjugated to acceptor beads. In the presence of antigen, the beads come into close proximity. The excitation of the donor beads provokes the release of singlet oxygen molecules that trigger a cascade of energy transfer in the acceptor beads, resulting in light emission.
(§4) To quantify the amount of Aβ42 in the cell supernatant, monoclonal antibody specific to the C-terminus of Aβ42 (JRF/cAB42/26) was coupled to the receptor beads and biotinylated antibody specific to the N-terminus of Aβ (JRF/ABN/25) was used to react with the donor beads. T quantify the amount of Aβtotal in the cell supernatant, monoclonal antibody specifc to the N-terminus of Aβ (JRF/AβN/25) was coupled to the receptor beads and biotinylated antibody specific to the mid region of Aβ (biotinylated 4G8) was used to react with the donor beads.
(§5) To obtain the values reported in Table 3, the data are calculated as percentage of the maximum amount of amyloid Beta 42 measured in the absence of the test compound. The sigmoidal dose response curves were analyzed using non-linear regression analysis with percentage of the control plotted against the log concentration of the compound. A 4-parameter equation was used to determine the IC50.

Aβtotal [2] = assay: Screening for γ-secretase-modulating activity: Aβtotal in supernatant of SKNBE2 cells carrying APP 695-wild type (Alphalisa); type: cell-based; details: Homo sapiens, overnight incubation, cell supernatant
Method: as §1, §2, §3, §4, §5

Aβ42 [3] = assay: In vivo efficacy: brain soluble Aβ42 lowering in non-transgenic animals (ELISA); parameters: species or system mouse; details: dose 30 mg/kg oral dosing; brain soluble fraction, 4 h after dose; untreated animals (Ctrl) set at 100
Source text: (§6) To determine whether acute administration of an Aβ42 lowering agent would reduce Aβ42 levels in vivo, non-transgenic rodents, e.g. mice or rats were used. Animals treated with the Aβ42 lowering agent were examined and compared to those untreated or treated with vehicle and brain levels of soluble Aβ42 and total Aβ were quantitated by standard techniques, for example, using ELISA. Treatment periods varied from hours (h) to days and were adjusted based on the results of the Aβ42 lowering once a time course of onset of effect could be established.
(§7) A typical protocol for measuring Aβ42 lowering in vivo is shown but it is only one of many variations that could be used to optimize the levels of detectable A3. For example, Aβ42 lowering compounds were formulated in 20% of Captisol® (a sulfobutyl ether of β-cyclodextrin) in water or 20% hydroxypropyl 0 cyclodextrin. The Aβ42 lowering agents were administered as a single oral dose or by any acceptable route of administration to overnight fasted animals. After 4 h, the animals were sacrificed and Aβ42 levels were analysed.
(§8) Blood was collected by decapitation and exsanguinations in EDTA-treated collection tubes. […] The left hemisphere was stored at −18° C. for quantitative analysis of test compound levels. […]
(§9) Mouse brains from non-transgenic animals were resuspended in 8 volumes of 0.4% DEA (diethylamine)/50 mM NaCl containing protease inhibitors (Roche-11873580001 or 04693159001) per gram of tissue, e.g. for 0.158 g brain, add 1.264 ml of 0.4% DEA. […] Nine parts of supernatant were neutralized with 1 part 0.5 M Tris-HCl pH 6.8 and used to quantify Aβtotal and Aβ42.
(§10) To quantify the amount of Aβtotal and Aβ42 in the soluble fraction of the brain homogenates, Enzyme-Linked-Immunosorbent-Assays were used. […] Following this incubation and subsequent wash steps the ELISA for Aβ42 quantification was finished by addition of Quanta Blu fluorogenic peroxidase substrate according to the manufacturer's instructions (Pierce Corp., Rockford, Il). A reading was performed after 10 to 15 min (excitation 320 nm/emission 420 nm). […]

Aβtotal [4] = assay: In vivo efficacy: brain soluble Aβtotal in non-transgenic animals (ELISA); parameters: species or system mouse; details: dose 30 mg/kg oral dosing; brain soluble fraction, 4 h after dose; untreated animals (Ctrl) set at 100
Source text: as §6, §7, §8, §9, §10

Compound | IC50 (Aβ42 [1]) [nM] | IC50 (Aβtotal [2]) [nM] | Aβ42 (% vs Ctrl)_Mean (Aβ42 [3]) [% vs Ctrl] | Aβtotal (% vs Ctrl)_Mean (Aβtotal [4]) [% vs Ctrl] | melting point [°C]
COc1ccc(N2CCN(c3nc(Nc4ccccc4C)n(C)n3)CC2(C)C)cc1 [Compound 1, 3-[4-(4-methoxyphenyl)-3,3-dimethyl-1-piperazinyl]-1-methyl-N-(2-methylphenyl)-1H-1,2,4-triazol-5-amine] | 50 | > 10000 | 50 | 107 | 156.8
COc1ccc(N2CCN(c3nc(Nc4ccccc4C(F)(F)F)n(C)n3)CC2(C)C)cc1 [Compound 2, 3-[4-(4-methoxyphenyl)-3,3-dimethyl-1-piperazinyl]-1-methyl-N-[2-(trifluoromethyl)phenyl]-1H-1,2,4-triazol-5-amine] | 90 | > 10000 | – | – | –
COc1ccc(N2CCN(c3nc(Nc4cccc(F)c4C(F)(F)F)n(C)n3)CC2(C)C)cc1 [Compound 3, N-[3-fluoro-2-(trifluoromethyl)phenyl]-3-[4-(4-methoxyphenyl)-3,3-dimethyl-1-piperazinyl]-1-methyl-1H-1,2,4-triazol-5-amine] | 50 | > 10000 | – | – | –
COc1ccc(N2CCN(c3nc(Nc4cccc(OC(F)(F)F)c4)n(C)n3)CC2(C)C)cc1 [Compound 4, 3-[4-(4-methoxyphenyl)-3,3-dimethyl-1-piperazinyl]-1-methyl-N-[3-(trifluoromethoxy)phenyl]-1H-1,2,4-triazol-5-amine.HCl] | 70 | > 10000 | – | – | –
COc1ccc(N2CCN(c3nc(Nc4cc(F)cc(C(F)(F)F)c4)n(C)n3)CC2(C)C)cc1 [Compound 5, N-[3-fluoro-5-(trifluoromethyl)phenyl]-3-[4-(4-methoxyphenyl)-3,3-dimethyl-1-piperazinyl]-1-methyl-1H-1,2,4-triazol-5-amine.0.8HCl] | 140 | > 10000 | – | – | –
COc1ccc(N2CCN(c3nc(Nc4ccc(F)cc4C)n(C)n3)CC2(C)C)cc1 [Compound 6, N-(4-fluoro-2-methylphenyl)-3-[4-(4-methoxyphenyl)-3,3-dimethyl-1-piperazinyl]-1-methyl-1H-1,2,4-triazol-5-amine.1.2HCl. 1.5H2O] | 50 | > 10000 | 45 | 109 | –
Cn1nc(N2CCC(Oc3ccncc3)CC2)nc1Nc1cc(C(F)(F)F)ccc1F [Compound 7, N-[2-fluoro-5-(trifluoromethyl)phenyl]-1-methyl-3-[4-(4-pyridinyloxy)-1-piperidinyl]-1H-1,2,4-triazol-5-amine] | 720 | > 10000 | – | – | –
Cc1cc(OC2CCN(c3nc(Nc4cc(C(F)(F)F)ccc4F)n(C)n3)CC2)ncn1 [Compound 8, N-[2-fluoro-5-(trifluoromethyl)phenyl]-1-methyl-3-[4-[(6-methyl-4-pyrimidinyl)oxy]-1-piperidinyl]-1H-1,2,4-triazol-5-amine] | 950 | > 10000 | – | – | 158
COc1ccc(N2CCN(c3nc(Nc4cc(C(F)(F)F)ccc4F)n(C)n3)CC2)cc1 [Compound 9, N-[2-fluoro-5-(trifluoromethyl)phenyl]-3-[4-(4-methoxyphenyl)-1-piperazinyl]-1-methyl-1H-1,2,4-triazol-5-amine] | 560 | > 10000 | – | – | 145.4
Cn1nc(N2CCN(c3ccncc3)CC2)nc1Nc1cc(C(F)(F)F)ccc1F [Compound 10, N-[2-fluoro-5-(trifluoromethyl)phenyl]-1-methyl-3-[4-(4-pyridinyl)-1-piperazinyl]-1H-1,2,4-triazol-5-amine] | 4900 | > 10000 | – | – | 261.8
Cc1cc(CC2CCN(c3nc(Nc4cc(C(F)(F)F)ccc4F)n(C)n3)CC2)ccn1 [Compound 11, N-[2-fluoro-5-(trifluoromethyl)phenyl]-1-methyl-3-[4-[(2-methyl-4-pyridinyl)methyl]-1-piperidinyl]-1H-1,2,4-triazol-5-amine.HCl.H2O] | 6920 | > 10000 | – | – | –
Cn1nc(N2CCN(Cc3ccncc3)CC2)nc1Nc1cc(C(F)(F)F)ccc1F [Compound 12, N-[2-fluoro-5-(trifluoromethyl)phenyl]-1-methyl-3-[4-(4-pyridinylmethyl)-1-piperazinyl]-1H-1,2,4-triazol-5-amine] | > 10000 | > 10000 | – | – | 161.4
COc1ccc(N2CCN(c3nc(Nc4cc(C(F)(F)F)ccc4F)n(C)n3)CC2(C)C)cc1 [Compound 14, N-[2-fluoro-5-(trifluoromethyl)phenyl]-3-[4-(4-methoxyphenyl)-3,3-dimethyl-1-piperazinyl]-1-methyl-1H-1,2,4-triazol-5-amine] | 110 | > 10000 | 78 | 111 | –
Cc1cc(OC2CCN(c3nc(Nc4cc(C(F)(F)F)ccc4F)n(C)n3)CC2)ccn1 [Compound 15, N-[2-fluoro-5-(trifluoromethyl)phenyl]-1-methyl-3-[4-[(2-methyl-4-pyridinyl)oxy]-1-piperidinyl]-1H-1,2,4-triazol-5-amine] | 250 | > 10000 | – | – | 177.4
COc1ccc(N2CCN(c3nc(-c4ccc(F)cc4)n(C)n3)CC2)cc1 [Compound 16, 1-[5-(4-fluorophenyl)-1-methyl-1H-1,2,4-triazol-3-yl]-4-(4-methoxyphenyl)-piperazine] | 4070 | > 10000 | – | – | 191.6
